Where two headings read alike, the source gives them in different places.
Key:
[1] = Metabolite profiling and quantification in urine (HPLC-MS2 with on-line radioactivity detector); type: in vivo, humans; settings: human, oral 207 μmol 14C-EC, mean ± SEM n=8; for Metabolite present in urine, collection period 0–4 h / Metabolite present in urine, collection period 4–8 h / Metabolite present in urine, collection period 8–12 h / Metabolite present in urine, collection period 12–24 h: – = not detected
Description: (§1) The study was a single-center, open-label, and non-randomized study with two distinct elements: a run-in phase to establish a more defined dietary background of dietary flavanols and procyanidins and the subsequent ^14C-EC ADME study (Fig. 1B). Participants (n = 12) were enrolled in the run-in phase (day –17 to day –4) and asked to supplement their daily diet for 14 days with a commercially available flavanol-containing cocoa-based drink (250 mg cocoa flavanols; 40 mg of EC). This was followed by a 4-day period (day –4 to 0) of a low-flavanol diet. One day (study day -1) prior to the initialization of the ^14C-EC ADME study, all eligible participants were accommodated under controlled conditions at a metabolic research facility (Covance Clinical Pharmacology Inc., Wisconsin) until completion of the study. Based on the compliance of the first part of the study, 8 participants were selected to participate in the ^14C-EC ADME study. During the ^14C-EC ADME study (Fig. 1B.), volunteers received a low-flavanol, standardized high-fiber diet, and were encouraged to maintain an adequate level of hydration (water ad libitum). Volunteers were asked to fast for 8 h before the initiation of the study and for at least 4 h after the intake of the ^14C-EC test drink (water ad libitum). Venous blood samples were taken using Vacutainer collection tubes, containing potassium EDTA at 0 h (just prior to ^14C-EC ingestion), and at 0.25, 0.5, 1, 1.5, 2, 2.5, 3, 4, 6, 8, 10, 12, 16, 24, 36, and 48 h after test drink consumption. Plasma was obtained by whole blood centrifugation at 2000 × g for 15 min at 5 °C, separated into aliquots and stored at −80 °C until analysis. All urine and feces from the time just prior to the consumption of the test drink were collected at different time intervals for radioactivity and metabolite profiling. Clinical parameters and laboratory evaluations of participants were assessed at screening, on study day –1, and after completing the study, as detailed in Supplementary Methods.
(§2) Samples were processed as described previously[18] and analyzed by HPLC-MS^2 in conjunction with an on-line HPLC-radioactivity monitor as described in SI Materials and Methods. Identification of metabolites involved comparing the retention time with authentic standards and MS^2 fragmentation patterns (Supplementary Methods). Quantification of metabolites in urine was based on HPLC radioactivity peak area (limit of quantification: 10^3 dpm). Due to the low levels of radioactivity, quantification in plasma was based on targeted HPLC-MS^2 using standard curves obtained with authentic standards (Supplementary Methods).
HPLC-MS identifications of radiolabeled [2-14C](−)-epicatechin metabolites in urine Urine was analyzed with radioactivity and mass spectrometry (MS) detection using a 250 mm x 4.6 mm i.d. 5 µm Luna Phenyl-Hexyl column (Phenomenex, Macclesfield, UK) […]
formic acid. Metabolite identification was performed by 1) co-chromatography of metabolites with reference compounds and a comparison of their MS fragmentation patterns 2, 2) by comparing m/z fragmentation patterns with earlier in-house observed […]
patterns to databases of metabolites reported in earlier polyphenol feeding studies5-7.
Supplementary Table S2, which also provides information on the MSI MI (Metabolite Standards Initiative – Metabolites Identification) level, a confidence level for identification where level 1 stands for fully elucidated (i.e., by comparison with a standard) and level 2 for a well characterized, but not yet fully structurally elucidated 8

[2] = Metabolite profiling and pharmacokinetics in plasma (targeted HPLC-MS2); type: in vivo, humans; settings: human plasma, oral 60 mg 14C-EC, mean ± SEM n=8; for AUC(0-t): read-out: AUC0-24h; for half-life: read-out: T1/2 (elimination half-life) (converted)
Description: as §1, §2
Data are expressed as mean values ± standard error, or as otherwise specified. Pharmacokinetic parameters were calculated using non-compartmental analysis with WinNonlin (Pharsight Corporation, Version 5.2).
5-20% acetonitrile in 0.1 % formic acid. Supplementary Table S2 provides details of HPLC retention times and the m/z values that were monitored.
Supplementary Table S2. Detection of (−)-epicatechin metabolites. HPLC retention times and selected reaction monitoring ions used for the HPLC-MS analysis of (−)-epicatechin metabolites in plasma. […]
Structurally related (-)-epicatechin metabolites in humans: assessment using de novo chemically synthesized authentic standards. Free Radic Biol Med 52, 1403- […]
3 Borges, G. et al. Bioavailability of multiple components following acute ingestion of a polyphenol-rich juice drink. Mol Nutr Food Res 54 Suppl 2, S268-277, […]
4 Stalmach, A. et al. Absorption, metabolism, and excretion of green tea flavan-3-ols in humans with an ileostomy. Mol Nutr Food Res 54, 323-334,

SMILES | Metabolite present in urine, collection period 0–48 h [1] [μ mol] | Metabolite present in urine, collection period 0–4 h [1] [μ mol] | Metabolite present in urine, collection period 4–8 h [1] [μ mol] | Metabolite present in urine, collection period 8–12 h [1] [μ mol] | Metabolite present in urine, collection period 12–24 h [1] [μ mol] | Cmax ([2]; male) [nM] | AUC(0-t) ([2]; male) [µM·h] | half-life ([2]; male) [h] | Tmax ([2]; male, read-out: Tmax) [h] | AUC0-24h [2] [µM·h] | Cmax [2] [nM] | T1/2 (elimination half-life) [2] [h] | Tmax [2] [h]
O=C(O)CCC(O)Cc1ccc(O[C@@H]2O[C@H](C(=O)O)[C@@H](O)[C@H](O)[C@H]2O)c(O)c1 (stereo partly drawn) [5-(3′-Hydroxyphenyl)-γ-hydroxyvaleric acid-4′-O-glucuronide] | 2.3 ± 0.7 |  | 1.3 ± 0.5 | 0.5 ± 0.3 | 0.5 ± 0.1 |  |  |  |  | 0.835 ± 0.355 | 54 ± 14 | 6.5 ± 0.8 | 4.9 ± 1.3
O=S(=O)(O)Oc1cc(O)cc2c1C[C@@H](O)[C@@H](c1ccc(O)c(O)c1)O2 [(−)-Epicatechin-5-sulfate] | 1.3 ± 0.2 | 1.3 ± 0.2 |  |  |  |  |  |  |  | 0.092 ± 0.025 | 32 ± 4 | 1.9 ± 0.3 | 0.8 ± 0.1
O=C(O)[C@H]1O[C@@H](Oc2cc([C@H]3Oc4cc(O)cc(O)c4C[C@H]3O)ccc2O)[C@H](O)[C@@H](O)[C@@H]1O [(−)-Epicatechin-3′-O-glucuronide, (−)-epicatechin-3′-O-β-D-glucuronide] | 18.6 ± 2.5 | 8.0 ± 1.4 | 5.7 ± 1.3 | 2.9 ± 0.8 | 2.0 ± 0.8 | 359 ± 23 | 1.62 ± 0.332 | 2 ± 1.1 | 0.8 ± 0.1 |  |  |  | 

Further lines, results first:

Metabolite present in urine, collection period 0–48 h [1] [μ mol] | Metabolite present in urine, collection period 0–4 h [1] [μ mol] | Metabolite present in urine, collection period 4–8 h [1] [μ mol] | Metabolite present in urine, collection period 8–12 h [1] [μ mol] | Metabolite present in urine, collection period 12–24 h [1] [μ mol] | Cmax ([2]; male) [nM] | AUC(0-t) ([2]; male) [µM·h] | half-life ([2]; male) [h] | Tmax ([2]; male, read-out: Tmax) [h] | AUC0-24h [2] [µM·h] | Cmax [2] [nM] | T1/2 (elimination half-life) [2] [h] | Tmax [2] [h] | SMILES
9.6 ± 1.2 | 7.1 ± 0.9 | 1.8 ± 0.3 | 0.4 ± 0.1 | 0.3 ± 0.2 | 240 ± 24 | 0.915 ± 0.178 | 1.6 ± 0.1 | 0.9 ± 0.1 |  |  |  |  | COc1cc([C@H]2Oc3cc(O)cc(OS(=O)(=O)O)c3C[C@H]2O)ccc1O [3′-O-Methyl-(−)-epicatechin-5-sulfate, 3′-O-methyl-(−)-epicatechin-5-sulfate]
1.1 ± 0.3 | 1.0 ± 0.2 | 0.1 ± 0.1 |  |  |  |  |  |  | 0.128 ± 0.045 | 53 ± 14 | 1.4 ± 0.3 | 0.9 ± 0.1 | COc1ccc([C@H]2Oc3cc(O)cc(OS(=O)(=O)O)c3C[C@H]2O)cc1O [4′-O-Methyl-(−)-epicatechin-5-sulfate]
0.7 ± 0.2 | 0.7 ± 0.2 |  |  |  |  |  |  |  | 0.203 ± 0.069 | 53 ± 13 | 2.3 ± 0.6 | 0.9 ± 0.1 | COc1cc([C@H]2Oc3cc(O)cc(O)c3C[C@H]2O)ccc1OS(=O)(=O)O [3′-O-Methyl-(−)-epicatechin-4′-sulfate]

Reference: PMC4929566, “The metabolome of [2-^14C](−)-epicatechin in humans: implications for the assessment of efficacy, safety, and mechanisms of action of polyphenolic bioactives” (Scientific Reports, 2016)
